From US20110165173A1, “THERAPEUTIC AGENT AND DETECTION REAGENT FOR ARTERIOSCLEROTIC DISEASE WHICH TARGETS FOR SALUSIN” (PROTEINEXPRESS CO., LTD., priority 2007, published 2011)

System: human monocyte-derived macrophages
Test: Cholesterol esterification assay: foaming of human monocyte-derived macrophages caused by AcLDL
Format: cell-based
Conditions: 0.6 nM; 5 μg/mL AcLDL added on Day 7
Description: Cholesterol esterification assay was employed as a method for assaying foaming of macrophages [Goldstein J L et al., Methods Enzymol. 1983; 98: 241-260]. Macrophages cause acetylated LDL (AcLDL) to be incorporated into cells via scavenger receptors so as to result in lysosome degradation. Free cholesterol produced in a lysosome is transferred to ACAT and converted into cholesterol ester as a result of ACAT reaction. If [^3H]oleate is added to a medium, [^3H]oleate is incorporated into cells and converted into [^3H]oleoyl-CoA by acyl CoA synthase. ACAT produces cholesterol [^3H]oleate with the use of as substrates, AcLDL-derived free cholesterol and [^3H]oleoyl-CoA obtained as above. The radioactivity of cholesterol [^3H]oleate accumulated in cells can serve as a sensitive indicator for cholesterol ester accumulation (FIG. 7).
LDL (d=1.019-1.063) was purified from human blood plasma by sequential flotation ultracentrifugation [Schumaker VN et al., Methds Enzymol. 1986; 128: 155-170]. […] The volume of the obtained blood plasma fraction from which chylomicron and VLDL had been removed was measured with a volumetric flask. […]
Equivalent volumes of LDL (protein: 30 mg) (15 mL if 2.0 mg protein/mL) and saturated sodium acetate were mixed together. […] At this time, pH was monitored with a pH meter with the dropwise addition of 5 N NaOH thereto such that the pH could be maintained at more than 6.5. […]

Row | Substance | accumulation of cholesterol [3H]oleate caused by AcLDL, percent of loaded control cells [%] | accumulation of cholesterol [3H]oleate caused by AcLDL relative to control cells [times]
1 | salusin-α: peptide (SEQ ID NO: 1) comprising 28 amino acid residues, generated by processing from preprosalusin (SGALPPAPAAPRPALRAQRAGPAGPGAK; listed as Homo sapiens) | 50 | –
2 | salusin-β: peptide (SEQ ID NO: 3) comprising 20 amino acid residues, generated by processing from preprosalusin (AIFIFIRWLLKLGHHGRAPP; listed as Homo sapiens) [reference compound] | – | 1.6
